Laboratory results reported in PubChem BioAssay AID1053137 (Broad Institute, 2014).

Columns and labels:
[1] = PCSK9 expression suppression by TRIB1 inducers – cell-based, RT-qPCR, cherry-pick, mechanism study for TRIB1 upregulator project, late-stage follow-up (AID 1053137); conditions: HepG2 PCSK9 mRNA, qRT-PCR, overnight; measured here: maximal PCSK9 expression inhibition; stronger effect = higher value
[2] = tested on: HepG2 PCSK9 mRNA, qRT-PCR, overnight; assay: as above

Structure (SMILES) | inhibition [1] [%] | AC50 [2] [nM]
CN1C(=O)c2cc(NC(=O)c3ccc(C(F)(F)F)cc3)ccc2OC[C@@H]2O[C@H](CC(=O)NC3Cc4ccccc4C3)CC[C@@H]21 | 85 | 110
CN1C(=O)c2cc(NC(=O)c3ccc(C(F)(F)F)cc3)ccc2OC[C@@H]2O[C@@H](CC(=O)NC3Cc4ccccc4C3)CC[C@@H]21 | 87 | 870
